The values that follow come from patent US20230117470A1, “SUBSTITUTED PYRAZOLE COMPOUNDS AS TOLL RECEPTOR INHIBITORS” (BRISTOL-MYERS SQUIBB COMPANY, priority 2019, published 2023).

Format in all cases: cell-based
The target in one test is T1, human TLR9 (Homo sapiens, UniProt Q9NR96).
T1 construct: host or cells: HEK-Blue cells
T1 sequence (Q9NR96 26-1032): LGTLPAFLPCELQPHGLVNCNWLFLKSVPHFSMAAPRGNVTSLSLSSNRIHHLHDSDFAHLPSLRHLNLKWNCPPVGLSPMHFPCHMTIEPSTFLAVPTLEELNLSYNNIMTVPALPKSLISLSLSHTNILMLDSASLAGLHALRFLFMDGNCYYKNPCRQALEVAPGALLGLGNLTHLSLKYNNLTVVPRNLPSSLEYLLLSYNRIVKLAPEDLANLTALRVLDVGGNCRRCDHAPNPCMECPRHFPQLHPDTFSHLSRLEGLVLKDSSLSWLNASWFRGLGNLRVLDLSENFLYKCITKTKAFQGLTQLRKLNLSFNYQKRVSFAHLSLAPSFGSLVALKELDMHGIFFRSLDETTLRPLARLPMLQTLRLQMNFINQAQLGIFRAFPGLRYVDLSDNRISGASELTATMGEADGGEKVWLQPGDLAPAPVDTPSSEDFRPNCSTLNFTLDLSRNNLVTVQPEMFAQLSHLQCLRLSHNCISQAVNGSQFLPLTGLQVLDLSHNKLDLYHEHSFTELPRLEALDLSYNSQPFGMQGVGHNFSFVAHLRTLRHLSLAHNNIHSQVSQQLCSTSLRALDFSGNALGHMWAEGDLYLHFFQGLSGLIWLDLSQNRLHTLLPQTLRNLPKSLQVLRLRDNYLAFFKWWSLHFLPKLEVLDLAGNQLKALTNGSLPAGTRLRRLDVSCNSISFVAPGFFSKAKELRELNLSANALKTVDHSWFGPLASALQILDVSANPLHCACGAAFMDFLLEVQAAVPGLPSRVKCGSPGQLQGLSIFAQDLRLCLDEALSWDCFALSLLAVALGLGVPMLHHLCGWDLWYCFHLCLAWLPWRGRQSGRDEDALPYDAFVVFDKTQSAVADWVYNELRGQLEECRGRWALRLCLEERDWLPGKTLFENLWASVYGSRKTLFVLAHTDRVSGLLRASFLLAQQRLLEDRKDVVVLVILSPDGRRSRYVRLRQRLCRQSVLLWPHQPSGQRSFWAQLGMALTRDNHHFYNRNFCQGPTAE
The test is described as follows: TLR9 inhibition reporter assay (HEK-Blue cells, SEAP reporter, ODN2006 stimulation). Conditions: HEK-Blue cells overexpressing human TLR9, SEAP reporter, ODN2006 5 nM. On the procedure:
(§1) TLR7/8/9 Inhibition Reporter Assays
(§2) HEK-Blue™-cells (Invivogen) overexpressing human TLR7, TLR8 or TLR9 receptors were used for screening inhibitors of these receptors using an inducible SEAP (secreted embryonic alkaline phosphatase) reporter gene under the control of the IFN-β minimal promoter fused to five NF-κB and AP-1-binding sites. Briefly, cells are seeded into Greiner 384 well plates (15000 cells per well for TLR7, 20,000 for TLR8 and 25,000 for TLR9) and then treated with test compounds in DMSO to yield a final dose response concentration range of 0.05 nM-50 μM. After a 30 minute compound pre-treatment at room temperature, the cells are then stimulated with a TLR7 ligand (gardiquimod at a final concentration of 7.5 μM), TLR8 ligand (R848 at a final concentration of 15.9 μM) or TLR9 ligand (ODN2006 at a final concentration of 5 nM) to activate NF-κB and AP-1 which induce the production of SLA After a 22 hour incubation at 37° C., […], SEAP levels are determined with the addition of HEK-Blue™ Detection reagent (Invivogen), a cell culture medium that allows for detection of SLAP, according to manufacturer's specifications. The percent inhibition is determined as the % reduction in the HEK-Blue signal present in wells treated with agonist plus DMSO alone compared to wells treated with a known inhibitor.
In general terms: A reporter such as luciferase makes a cellular process visible.

The target of another test is T2, human TLR8 (Homo sapiens, UniProt Q9NR97).
T2 construct: host or cells: HEK-Blue cells
T2 sequence (Q9NR97 27-1041): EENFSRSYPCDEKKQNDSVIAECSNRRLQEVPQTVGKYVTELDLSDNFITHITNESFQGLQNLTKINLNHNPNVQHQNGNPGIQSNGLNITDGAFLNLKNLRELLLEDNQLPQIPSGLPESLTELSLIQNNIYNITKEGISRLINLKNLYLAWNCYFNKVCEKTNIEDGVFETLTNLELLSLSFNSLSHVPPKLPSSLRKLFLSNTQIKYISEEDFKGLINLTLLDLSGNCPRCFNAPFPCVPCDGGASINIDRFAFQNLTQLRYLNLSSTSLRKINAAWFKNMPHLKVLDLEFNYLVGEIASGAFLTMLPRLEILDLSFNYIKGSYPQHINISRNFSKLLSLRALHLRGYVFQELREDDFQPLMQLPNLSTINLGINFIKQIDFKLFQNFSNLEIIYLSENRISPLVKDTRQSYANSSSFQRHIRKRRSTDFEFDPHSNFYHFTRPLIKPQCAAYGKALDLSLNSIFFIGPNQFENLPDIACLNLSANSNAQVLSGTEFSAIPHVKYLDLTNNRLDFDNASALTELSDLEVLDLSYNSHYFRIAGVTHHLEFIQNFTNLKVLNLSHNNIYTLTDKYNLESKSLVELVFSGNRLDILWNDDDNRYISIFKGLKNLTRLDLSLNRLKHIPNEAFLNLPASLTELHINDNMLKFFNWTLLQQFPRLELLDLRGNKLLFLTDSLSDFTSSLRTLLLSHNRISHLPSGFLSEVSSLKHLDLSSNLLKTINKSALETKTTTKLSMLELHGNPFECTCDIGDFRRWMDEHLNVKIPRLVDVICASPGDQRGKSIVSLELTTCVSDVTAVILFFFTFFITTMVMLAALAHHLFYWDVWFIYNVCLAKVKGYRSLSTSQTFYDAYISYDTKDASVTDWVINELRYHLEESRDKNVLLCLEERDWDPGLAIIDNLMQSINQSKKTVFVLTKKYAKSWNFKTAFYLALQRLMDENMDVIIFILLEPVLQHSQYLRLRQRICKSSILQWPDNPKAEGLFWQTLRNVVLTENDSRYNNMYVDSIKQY
The test is described as follows: TLR8 inhibition reporter assay (HEK-Blue cells, SEAP reporter, R848 stimulation). Conditions: HEK-Blue cells overexpressing human TLR8, SEAP reporter, R848 15.9 μM. On the procedure:
as §1, §2

The target in another test is T3, human TLR7 (Homo sapiens, UniProt Q9NYK1).
T3 construct: host or cells: HEK-Blue cells
T3 sequence (Q9NYK1 27-1049): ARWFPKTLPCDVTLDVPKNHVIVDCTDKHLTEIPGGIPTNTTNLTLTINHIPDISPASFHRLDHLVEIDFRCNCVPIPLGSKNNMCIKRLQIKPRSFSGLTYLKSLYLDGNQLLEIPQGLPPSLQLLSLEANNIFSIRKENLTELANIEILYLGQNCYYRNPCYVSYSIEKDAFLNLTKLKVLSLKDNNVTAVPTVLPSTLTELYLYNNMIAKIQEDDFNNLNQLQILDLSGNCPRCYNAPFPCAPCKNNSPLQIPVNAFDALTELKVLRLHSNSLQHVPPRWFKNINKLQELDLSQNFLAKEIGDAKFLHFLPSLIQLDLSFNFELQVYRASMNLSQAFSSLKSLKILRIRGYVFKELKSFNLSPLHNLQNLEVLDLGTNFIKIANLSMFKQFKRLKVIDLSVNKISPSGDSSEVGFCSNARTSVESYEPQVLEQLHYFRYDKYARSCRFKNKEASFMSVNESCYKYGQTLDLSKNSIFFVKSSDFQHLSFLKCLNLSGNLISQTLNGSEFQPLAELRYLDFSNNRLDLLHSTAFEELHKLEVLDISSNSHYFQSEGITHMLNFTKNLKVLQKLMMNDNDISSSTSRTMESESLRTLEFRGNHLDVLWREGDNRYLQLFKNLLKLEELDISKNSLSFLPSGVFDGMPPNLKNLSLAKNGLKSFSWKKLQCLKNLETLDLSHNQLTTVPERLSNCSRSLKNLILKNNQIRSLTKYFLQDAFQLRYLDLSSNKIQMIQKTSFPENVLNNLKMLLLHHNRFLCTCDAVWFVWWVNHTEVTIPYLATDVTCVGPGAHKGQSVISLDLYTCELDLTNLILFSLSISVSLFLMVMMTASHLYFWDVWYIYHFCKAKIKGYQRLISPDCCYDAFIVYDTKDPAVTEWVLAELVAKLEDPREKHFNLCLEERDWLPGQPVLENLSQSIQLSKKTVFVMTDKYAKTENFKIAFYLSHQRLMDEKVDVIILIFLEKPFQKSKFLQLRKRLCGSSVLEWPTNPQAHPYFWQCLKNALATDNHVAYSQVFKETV
Briefly: TLR7 inhibition reporter assay (HEK-Blue cells, SEAP reporter, gardiquimod stimulation). Conditions: HEK-Blue cells overexpressing human TLR7, SEAP reporter, gardiquimod 7.5 μM. On the procedure: as §1, §2

The structures appear in SMILES notation. A value given as a limit tells only on which side of the number the result lay.

One may read the IC50 as the midpoint of a concentration-inhibition curve. High values mean weaker potency in that assay, low ones greater potency in that assay. With `Cc1cc(-c2[nH]nc(C(=O)NC3CNC3)c2C(C)C)cn2ncnc12` [Example 58], the IC50 stood at 32.8 µM against human TLR9, 1.43 nM at human TLR8 and 3.01 nM against human TLR7.

Turning to `Cc1cc(-c2[nH]nc(-c3ccc(C4CCN(C5COC5)CC4)nc3)c2C(C)C)cn2ncnc12` [Example 362], the IC50 was 25.1 µM against human TLR9, > 3130 nM at human TLR8 and > 3130 nM against human TLR7.

Consider `COc1cc(-c2[nH]nc(C(=O)NC3CCN(C(C)C)CC3)c2C(C)C)cn2ncnc12` [Example 12], for which the IC50 against human TLR9 is 2.15 µM; against human TLR8, 0.86 nM; at human TLR7, 1.59 nM.

For the compound `Cc1cc(-c2[nH]nc(C3CCN(C(C)C)CC3)c2C(C)C)cn2ncnc12` [compound 207], the IC50 against human TLR9 was 20.7 µM; against human TLR8 it was 0.31 nM; against human TLR7, 2.92 nM.

`Cc1noc(C)c1CN[C@H]1CC[C@@H](NC(=O)c2n[nH]c(-c3cc(C)c4ncnn4c3)c2C(C)C)CC1` [Example 93]: the IC50 was 12 µM on human TLR9, 15.6 nM at human TLR8 and 1.89 nM on human TLR7.

For the compound `Cc1cc(-c2[nH]nc(-c3nc4c(s3)CN(C3CCN(C(C)C)CC3)CC4)c2C(C)C)cn2ncnc12` [Example 254], the figures for the IC50 against human TLR9, against human TLR8 and against human TLR7 were 29.2 µM, 22.7 nM and 26.8 nM, respectively.

Consider `Cc1cc(-c2[nH]nc(C(=O)NCC3CN(C4COC4)CCO3)c2C(C)C)cn2ncnc12` (centres unmarked) [Example 142], for which the figures for the half-maximal inhibitory concentration (IC50) against human TLR9, against human TLR8 and against human TLR7 were 6.97 µM, 2.7 nM and 2.08 nM, respectively.

On to `Cc1cc(-c2[nH]nc(-c3ccc(C4CCN(C5COC5)CC4)cc3)c2C(C)C)cn2ncnc12` [Example 311], for which the IC50 was 18.8 µM against human TLR9, > 3130 nM against human TLR8 and 1400 nM on human TLR7.

With `Cc1cc(-c2[nH]nc(C(=O)NC3CN(CC4(C)COC4)C3)c2C(C)C)cn2ncnc12` [Example 154], the IC50 against human TLR9 amounted to 9.31 µM; at human TLR8, 3.33 nM; on human TLR7 it was 11.9 nM.

Take `COCC(C)N[C@H]1CC[C@@H](NC(=O)c2n[nH]c(-c3cc(C)c4ncnn4c3)c2C(C)C)CC1` (some centres unmarked) [Example 147]: the values for the IC50 against human TLR9, against human TLR8 and against human TLR7 were 18.8 µM, 5.67 nM and 90.1 nM, respectively.

`COc1cc(-c2[nH]nc(C(=O)NC3CCNCC3)c2CC(F)(F)F)cn2ncnc12` [Example 190, 5-(8-methoxy-[1,2,4]triazolo[1,5-a]pyridin-6-yl)-N-(piperidin-4-yl)-4-(2,2,2-trifluoroethyl)-1H-pyrazole-3-carboxamide]: the IC50 came to 8.35 µM at human TLR9, 0.58 nM on human TLR8 and 0.8 nM against human TLR7.

`Cc1cc(-c2[nH]nc(-c3nc4c(s3)CCNC4)c2C(C)C)cn2ncnc12` [Example 221]: the IC50 on human TLR9 is > 50 µM; at human TLR8, 33.3 nM; at human TLR7, 3.08 nM.

Regarding `CCC(CC)N[C@H]1CC[C@H](NC(=O)c2n[nH]c(-c3cc(C)c4ncnn4c3)c2C(C)C)CC1` [Example 119], the results for the IC50 against human TLR9, against human TLR8 and against human TLR7 were > 50 µM, 54.2 nM and 3.33 nM, respectively.

On to `Cc1cc(-c2[nH]nc(C(=O)NCCN3CCOCC3)c2C(C)C)cn2ncnc12` [Example 3], for which the IC50 on human TLR9 worked out at 18.5 µM; against human TLR8 it was 3.05 nM; on human TLR7, 1.84 nM.

As to `Cc1cc(-c2[nH]nc(-c3ccc4c(c3)CCN(C(=O)CN(C)C)C4)c2C(C)C)cn2ncnc12` [Example 268, 2-(dimethylamino)-1-(6-(4-isopropyl-5-(8-methyl-[1,2,4]triazolo[1,5-a]pyridin-6-yl)-1H-pyrazol-3-yl)-3,4-dihydroisoquinolin-2(1H)-yl)ethan-1-one], the IC50 at human TLR9 was > 50 µM; against human TLR8, 65.1 nM; on human TLR7, 41.1 nM.

Take `Cc1cc(-c2[nH]nc(CNC3CCN(C(C)C)CC3)c2C(C)C)cn2ncnc12` [Example 186]: the IC50 stood at 5.92 µM against human TLR9, 0.21 nM against human TLR8 and 1.59 nM against human TLR7.

Take `CCN1CC(c2ccc(-c3n[nH]c(-c4cc(C)c5ncnn5c4)c3C(C)C)cc2)C1` [Example 325]: the IC50 against human TLR9 was > 50 µM; on human TLR8 it was 0.19 nM; on human TLR7 it was 19 nM.

As for `Cc1cc(-c2[nH]nc(C(=O)NCC3CCCCN3)c2C(C)C)cn2ncnc12` (centres unmarked) [Example 56], the IC50 at human TLR8 is 3.43 nM; against human TLR7 it was 4.36 nM.
